Measured values as given in patent US8895497B2, “Cathepsin S inhibitors” (DCB-USA, LLC, priority 2009, dated 2014).

Legend:
A2058 melanoma cells = assay: In vivo assay, mice inoculated with A2058 melanoma cells; set-up: species or system BALB/cAnN-Foxn1nu/CrlNarl female mice
Procedure: BALB/cAnN-Foxn1nu/CrlNarl female mice were inoculated with A2058 melanoma cells. On day 7, 12 mice were treated i.v. with Compound 1 in DMSO (mg/kg) and 8 mice were treated with DMSO as control. The treatment was continued for 72 days. The mice were sacrificed and their lungs were weighted.

[1] = system: human A2058 melanoma cells; assay: Migration/invasion of A2058 melanoma cells; format: cell-based
Procedure: (§1) The cancer cell migration assay was performed in 96-wll-MultiScreen-MIC plates (Millipore) with 8 μm-pore-sized polycarbonate membrane. Briefly, highly-metastatic human lung adenocarcinoma CL1-5 cells were placed onto the upper chamber (2×10^4 cells/well) with tested compounds in complete medium (RPMI 1640 medium containing 1% FBS) and only medium placed onto the lower chamber. The chamber culture was incubated for 24 h at 37° C. and, then, the non-migrated cells were washed off the upper surface of the membrane. The migrated cells on the bottom side were dissociated with Cell Detachment Buffer (Chemicon, Inc.), lysed and stained for nucleic acids with CyQuant GR dye (Molecular Probes). The signal intensities were measured using a fluorescence reader (VICTORTIM 1420 Multilabel Counter, Wallac) at excitation wavelength of 485 nm and emission wavelength of 535 nm (1 sec). The result was presented as the average values from three independent experiments performed in duplicates.
(§2) Similarly, Compounds 1 and 118 were tested against human A2058 melanoma cells and pancreatic cancer cells.

pancreatic cancer cells = assay: Migration/invasion of pancreatic cancer cells; format: cell-based, human
Procedure: as §1, §2

Compound | lung weights (A2058 melanoma cells; A2058 inoculated mice, i.v. in DMSO from day 7, treatment continued for 72 days, DMSO control 0.671 g) | inhibition of cancer growth in A2058 inoculated mice (A2058 melanoma cells; i.v. in DMSO, 72 days) | inhibition of migratory and invasice abilities of A2058 melanoma cells [1] | inhibition of migratory and invasice abilities of pancreatic cancer cells (pancreatic cancer cells)
CCOC(=O)CNC(=O)C(=O)[C@H](COCc1ccccc1)NC(=O)[C@H](CC(C)C)NC(=O)c1cccc2c1C(=O)c1ccccc1-2 (stereo in doubt) [Compound 1, Ethyl 2-(4-(benzyloxy)-3-[((2R)-4-methyl-2-[(9-oxo-9H-1-fluorenyl)carbonyl]aminopropanoyl)amino]-2-oxobutanoylamino)acetate] | 0.471 g | effectively inhibited cancer growth | effectively inhibited migratory and invasice abilities | 
O=C(NCCC1CCCCC1)C(O)[C@H](CCc1ccccc1)NC(=O)[C@H](CC1CCCCC1)NC(=O)N1CCOCC1 (stereo partly shown) [Compound 118] |  |  |  | effective inhibited migratory and invasice abilities
